From patent US20070060621A1, “Methods and compositions for the administration of prodrugs of proton pump inhibitors” (priority 2004, published 2007)

Columns and labels:
Format in all cases: physicochemical
[1] = Hygroscopicity of compound 1 on storage
Method: The physicochemical properties of compound 1 were analyzed.

[2] = Stability profile at 25° C. in buffered aqueous solutions
Text: The base-catalyzed degradation is unexpected because the commercial proton pump inhibitors are stabilized in aqueous solutions by adjusting the solution to high pH.

[3] = Stability of compound 1 at 0.02 mg/mL at 25° C. in water, NaCl salt and phosphate buffer; details: for % Remaining: 25° C., 0.02 mg/mL; for Half Life (t½) / Rate Constant (k) / Shelf life (t90%): first order decay from 3-29 days
Method: FIG. 1 is a plot of the % of the original concentration of compound remaining over time. The original concentration of compound 1 was 0.02 mg/mL, and stability was assessed at 25° C. in 1) water, 2) NaCl salt (μ=0.15), 3) NaCl salt (μ=0.5), 4) phosphate buffer (pH 7.0, μ=0.15), and 5) phosphate buffer (pH 7.0, μ=0.5).
FIG. 2 is a log plot of the data of FIG. 1.
The stability of compound 1 at a concentration of 0.02 mg/mL in water at 25° C. was assessed in 1) water, 2) NaCl salt (μ=0.15), 3) NaCl salt (μ=0.5), 4) phosphate buffer (pH 7.0, μ=0.15), and 5) phosphate buffer (pH 7.0, μ=0.5). For the buffer solutions, the ionic strength (μ) was adjusted using sodium chloride, and the buffer concentration of the two solutions was equal (0.1 M). The amount of remaining compound 1 is presented as the % of the original concentration of 0.02 mg/mL for each sample in Table 3a and in FIG. 1.

[4] = pH 3, Citric Acid (0.1 M)/Na2HPO4 (0.2 M)
[5] = pH 5, Citric Acid (0.1 M)/Na2HPO4 (0.2 M)
[6] = pH 7, sodium phosphate (0.1-0.2 M)
[7] = pH 7.4, sodium phosphate (0.1-0.2 M)
[8] = pH 9, sodium phosphate (0.1-0.2 M)
[9] = pH 10, sodium phosphate (0.1-0.2 M)
[10] = Na phosphate buffer, u = 0.15, pH 7.0, 25° C.
[11] = Na phosphate buffer, u = 0.5, pH 7.0, 25° C.

- hygroscopicity ([1]; 14 days of storage at 25° C. at 75% relative humidity): hygroscopic
- weight gain ([1]; after 14 days of storage at 25° C. at 75% relative humidity): 9%
- Degradation Rate Constant (k) ([2]; No buffer): 0.0002 h⁻¹
- Half-life (t1/2) ([2]; No buffer): 119.32 days
- Shelf life (t90%) ([2]; No buffer): 435.4 h
- Degradation Rate Constant (k) ([2]; pH 1, 0.1 M HCl): 0.194 h⁻¹
- Half-life (t1/2) ([2]; pH 1, 0.1 M HCl): 0.15 days
- Shelf life (t90%) ([2]; pH 1, 0.1 M HCl): 0.5 h
- Degradation Rate Constant (k) [2, 4]: 0.009 h⁻¹
- Half-life (t1/2) [2, 4]: 3.25 days
- Shelf life (t90%) [2, 4]: 11.9 h
- Degradation Rate Constant (k) [2, 5]: 0.008 h⁻¹
- Half-life (t1/2) [2, 5]: 3.72 days
- Shelf life (t90%) [2, 5]: 13.6 h
- Degradation Rate Constant (k) [2, 6]: 0.002 h⁻¹
- Half-life (t1/2) [2, 6]: 11.95 days
- Shelf life (t90%) [2, 6]: 43.6 h
- Degradation Rate Constant (k) [2, 7]: 0.002 h⁻¹
- Half-life (t1/2) [2, 7]: 12.13 days
- Shelf life (t90%) [2, 7]: 44.3 h
- Degradation Rate Constant (k) [2, 8]: 0.030 h⁻¹
- Half-life (t1/2) [2, 8]: 0.958 days
- Shelf life (t90%) [2, 8]: 3.5 h
- Degradation Rate Constant (k) [2, 9]: 0.298 h⁻¹
- Half-life (t1/2) [2, 9]: 0.0958 days
- Shelf life (t90%) [2, 9]: 0.4 h
- % Remaining ([3]; Day 1, NaCL, u = 0.15 (pH 6.6)): 84.134%
- % Remaining ([3]; Day 1, NaCL, u = 0.5 (pH 6.2)): 87.598%
- % Remaining ([3]; Day 1, Phosphate buffer, u = 0.15 (pH 7.0)): 96.294%
- % Remaining ([3]; Day 1, Phosphate buffer, u = 0.5 (pH 7.0)): 96.709%
- % Remaining ([3]; Day 1, Water (pH 7.2)): 92.212%
- % Remaining ([3]; Day 3, NaCL, u = 0.15 (pH 6.6)): 76.960%
- % Remaining ([3]; Day 3, NaCL, u = 0.5 (pH 6.2)): 80.750%
- % Remaining ([3]; Day 3, Phosphate buffer, u = 0.15 (pH 7.0)): 90.597%
- % Remaining ([3]; Day 3, Phosphate buffer, u = 0.5 (pH 7.0)): 90.087%
- % Remaining ([3]; Day 3, Water (pH 7.2)): 86.085%
- % Remaining ([3]; Day 4, NaCL, u = 0.15 (pH 6.6)): 77.037%
- % Remaining ([3]; Day 4, NaCL, u = 0.5 (pH 6.2)): 78.348%
- % Remaining ([3]; Day 4, Phosphate buffer, u = 0.15 (pH 7.0)): 87.434%
- % Remaining ([3]; Day 4, Phosphate buffer, u = 0.5 (pH 7.0)): 85.994%
- % Remaining ([3]; Day 4, Water (pH 7.2)): 86.410%
- % Remaining ([3]; Day 7, NaCL, u = 0.15 (pH 6.6)): 75.398%
- % Remaining ([3]; Day 7, NaCL, u = 0.5 (pH 6.2)): 76.513%
- % Remaining ([3]; Day 7, Phosphate buffer, u = 0.15 (pH 7.0)): 80.995%
- % Remaining ([3]; Day 7, Phosphate buffer, u = 0.5 (pH 7.0)): 76.165%
- % Remaining ([3]; Day 7, Water (pH 7.2)): 84.569%
- % Remaining ([3]; Day 9, NaCL, u = 0.15 (pH 6.6)): 71.861%
- % Remaining ([3]; Day 9, NaCL, u = 0.5 (pH 6.2)): 74.482%
- % Remaining ([3]; Day 9, Phosphate buffer, u = 0.15 (pH 7.0)): 76.176%
- % Remaining ([3]; Day 9, Phosphate buffer, u = 0.5 (pH 7.0)): 70.768%
- % Remaining ([3]; Day 9, Water (pH 7.2)): 84.452%
- % Remaining ([3]; Day 11, NaCL, u = 0.15 (pH 6.6)): 73.763%
- % Remaining ([3]; Day 11, NaCL, u = 0.5 (pH 6.2)): 74.312%
- % Remaining ([3]; Day 11, Phosphate buffer, u = 0.15 (pH 7.0)): 74.520%
- % Remaining ([3]; Day 11, Phosphate buffer, u = 0.5 (pH 7.0)): 67.826%
- % Remaining ([3]; Day 11, Water (pH 7.2)): 86.930%
- % Remaining ([3]; Day 13, NaCL, u = 0.15 (pH 6.6)): 72.390%
- % Remaining ([3]; Day 13, NaCL, u = 0.5 (pH 6.2)): 71.691%
- % Remaining ([3]; Day 13, Phosphate buffer, u = 0.15 (pH 7.0)): 68.020%
- % Remaining ([3]; Day 13, Water (pH 7.2)): 83.661%
- % Remaining ([3]; Day 15, NaCL, u = 0.15 (pH 6.6)): 67.858%
- % Remaining ([3]; Day 15, NaCL, u = 0.5 (pH 6.2)): 68.167%
- % Remaining ([3]; Day 15, Phosphate buffer, u = 0.15 (pH 7.0)): 62.389%
- % Remaining ([3]; Day 15, Phosphate buffer, u = 0.5 (pH 7.0)): 52.494%
- % Remaining ([3]; Day 15, Water (pH 7.2)): 80.913%
- % Remaining ([3]; Day 20, NaCL, u = 0.15 (pH 6.6)): 64.953%
- % Remaining ([3]; Day 20, NaCL, u = 0.5 (pH 6.2)): 65.173%
- % Remaining ([3]; Day 20, Phosphate buffer, u = 0.15 (pH 7.0)): 54.360%
- % Remaining ([3]; Day 20, Phosphate buffer, u = 0.5 (pH 7.0)): 44.057%
- % Remaining ([3]; Day 20, Water (pH 7.2)): 78.768%
- % Remaining ([3]; Day 24, NaCL, u = 0.15 (pH 6.6)): 64.848%
- % Remaining ([3]; Day 24, NaCL, u = 0.5 (pH 6.2)): 65.753%
- % Remaining ([3]; Day 24, Phosphate buffer, u = 0.15 (pH 7.0)): 50.246%
- % Remaining ([3]; Day 24, Phosphate buffer, u = 0.5 (pH 7.0)): 39.181%
- % Remaining ([3]; Day 24, Water (pH 7.2)): 79.915%
- % Remaining ([3]; Day 29, NaCL, u = 0.15 (pH 6.6)): 62.731%
- % Remaining ([3]; Day 29, NaCL, u = 0.5 (pH 6.2)): 62.867%
- % Remaining ([3]; Day 29, Phosphate buffer, u = 0.15 (pH 7.0)): 43.321%
- % Remaining ([3]; Day 29, Phosphate buffer, u = 0.5 (pH 7.0)): 32.626%
- % Remaining ([3]; Day 29, Water (pH 7.2)): 78.412%
- Half Life (t½) [3, 10]: 24.063 days
- Rate Constant (k) [3, 10]: 0.0288 day⁻¹
- Shelf life (t90%) [3, 10]: 3.658 days
- Half Life (t½) [3, 11]: 17.589 days
- Rate Constant (k) [3, 11]: 0.0394 day⁻¹
- Shelf life (t90%) [3, 11]: 2.674 days
- Half Life (t½) ([3]; NaCl, u = 0.15, pH 6.6, 25° C.): 80.581 days
- Rate Constant (k) ([3]; NaCl, u = 0.15, pH 6.6, 25° C.): 0.0086 day⁻¹
- Shelf life (t90%) ([3]; NaCl, u = 0.15, pH 6.6, 25° C.): 12.251 days
- Half Life (t½) ([3]; NaCl, u = 0.5, pH 6.6, 25° C.): 75.326 days
- Rate Constant (k) ([3]; NaCl, u = 0.5, pH 6.6, 25° C.): 0.0092 day⁻¹
- Shelf life (t90%) ([3]; NaCl, u = 0.5, pH 6.6, 25° C.): 11.452 days
- Half Life (t½) ([3]; water, pH 7.2, 25° C.): 161.163 days
- Rate Constant (k) ([3]; water, pH 7.2, 25° C.): 0.0043 day⁻¹
- Shelf life (t90%) ([3]; water, pH 7.2, 25° C.): 24.502 days
Compound: COc1ccc2c(c1)nc([S+]([O-])Cc1ncc(C)c(OC)c1C)n2S(=O)(=O)c1ccc(OCC(=O)O)cc1 (centres unmarked) [Compound 1]
